# Measured values from patent US10464941B2, “Therapeutic compounds” (REGENTS OF THE UNIVERSITY OF MINNESOTA, priority 2015, dated 2019).
# “And” between values parts separate entries of the source, which are not always exact repeats. Equal entries are not always repeated. Marks after values point to notes of the source that are not given here.
# Tests used:
# LPS-pretreated mice [1] = experiment: Effect of minocycline on MCC22 antinociception in LPS-pretreated mice (tail flick); type: in vivo; conditions: for MPE after minocycline: MCC22 1 pmol/mouse i.t.
# Description: Effect of Minocycline in Mice Pretreated by LPS and Blockage of Antinociception of MCC22.
# Three separate groups of mice (n=8) were pretreated with 1 mg/kg of LPS (i.p.). At 24 hours the baseline antinociception was measured using the tail flick assay to calculate % MPE. […] […] The dose used for MCC22 is a hundred times the ED50 dose of LPS pretreated mice with MCC22.
# [2] = test system: mice with cisplatin-induced hyperalgesia; experiment: Cisplatin-induced peripheral neuropathy, mechanical hyperalgesia (von Frey); type: in vivo, C3H/HeJ mice; conditions: cisplatin model
# Description: Adult male C3H/HeJ mice were tested for mechanical paw withdrawal responses on 2 consecutive days prior to treatment by determining the frequency of hind paw withdrawal evoked by a standard von Frey monofilament with a bending force of 3.9 mN applied to the plantar surface of the hind paws. Mice were then given 1 mg/kg of cisplatin intraperitoneal (i.p.) daily for 7 consecutive days and on day 14 post-injection, mechanical hyperalgesia was assessed. Compounds were administered intrathecally (i.t.) and i.p. weekly to determine peak time effects and ED50/80.
# LPS-pretreated mice [3] = experiment: animal or person; conditions: for LPS pretreated i.c.v./i.t. ratio / LPS pretreated ED50 (CI) i.t.: LPS 1 mg/kg 24 hours i.p.; for LPS pretreated ED50 (CI) i.t.: tail flick
# Description: Male ICR-CD1 mice (17-25 g; Harlan, Madison, Wis.), C3H mice (15-20 g, National Cancer Institute, Bethesda, Md.) or TLR4 knock-out mice (gift from Dr. Sabita Roy) were housed, 4 to a small box in a temperature- and humidity-controlled environment with unlimited access to food and water. They were maintained on a 12 h light/dark cycle. All experiments were approved by the Institutional Animal Care and Use Committee of the University of Minnesota (Minneapolis, Minn.).
# The tail flick assay is used to test for antinociception described by D'Amour and Smith^64 and modified by Dewey et. al.^65 Mice are held gently in one hand with the tail positioned in the apparatus (Tail Flick Analgesia Meter, Columbus Instruments, Columbus, Ohio) for radiant heat stimulus. The tail-flick response is elicited by applying radiant heat to the dorsal side of the tail. The test latency is measured before drug treatment (control) and again after the drug treatment (test) at the peak time of the compound, a 10 s maximum cut-off time is used to prevent damage to the tail. Antinociception is quantified according to the method of Harris and Pierson^66 as the percent maximal possible effect (% MPE) which is calculated as: % MPE=(Test−Control/10−Control)×100
# A minimum of three groups of eight to ten mice are used for each dose response curve, and each mouse is used only once.
# The compounds were tested for acute tolerance by comparing the ED80-90 dose measured on day 1 to the same dose administered and retested 24 hours later on the same mouse.
# Compounds were dissolved in 5% DMSO and diluted to less than 1% DMSO for injection. These compounds were administered in a volume of 5-μl either i.c.v (Haley and McCormick) or intrathecal (i.t.) as described for mice by Hylden and Wilcox^67 in conscious mice. […] Time course studies, including the times 5, 10, 20, 30 and 60 minutes were used to determine the peak antinociception.
# Pain is a hallmark of many inflammatory conditions. […] Antinociception was evaluated using the radiant heat-induced tailflick assay. Morphine was employed as a standard opioid agonist under these conditions.
# HbSS and HbAS mice = experiment: Sickle cell disease mice, paw withdrawal frequency; type: in vivo, Townes transgenic humanized mice; conditions: 8.0 μmol/kg i.p.
# Description: Townes transgenic humanized mice expressing sickle hemoglobin (HbSS/HbAS) and normal human hemoglobin (HbAA) controls (4-12 weeks of age, 20-25 g) were used in this study. Mice were characterized for hyperalgesia by quantifying cutaneous mechanical sensitivity of the hind paw and forelimb grip force. Mechanical sensitivity of the hind paw was evaluated by determining the frequency of withdrawal responses and paw withdrawal threshold. The frequency of paw withdrawal evoked by a standard von Frey monofilament with a bending force of 9.3 mN applied to the plantar surface of the hind paws was determined from 10 trials on each paw. Withdrawal threshold was determined using an electronic von Frey anesthesiometer pressed against the plantar surface with increasing force until withdrawal occurred. To assess deep tissue hyperalgesia, the tensile force of peak forelimb exertion was measured using a computerized grip force meter. To evaluate the analgesic effects of MCC22, paw withdrawal frequency was determined before and at various times after administration of […] i.p.
# WDR neuron = experiment: Extracellular recordings from dorsal horn neurons, von Frey stimulation; type: in vivo, mice; conditions: hind paw, 5 sec, compared with control and vehicle
# Description: Mice were anesthetized with isoflurane while maintaining core temperature at 37° C. A laminectomy exposed the lumbar spinal cord then mice were secured in a spinal frame. Extracellular recordings from dorsal horn neurons with receptive fields located on the plantar surface of the hind paw were obtained using glass microelectrodes lowered into the spinal cord.
# Receptive fields (RFs) of dorsal horn neurons were identified by stroking the skin and applying mild pressure. Neurons were classified functionally as low threshold (LT), wide dynamic range (WDR) and high threshold (HT) using mechanical stimulation of graded intensities. RF areas were mapped using von Frey filaments. The discharge rate of spontaneous activity was recorded for 3 minutes. Mechanical response thresholds were determined and an increasing series of von Frey filaments were applied, each for 5 sec. Action potentials and the time of stimulus application were stored on a computer. Comparisons of discharge rates were made between vehicle and MCC22.
compound,measurement,setting,value
"Cc1ccc(N(CCCN2CCC(Cc3ccc(C(N)=O)cc3)CC2)C(=O)C2CCN(C(=O)COCC(=O)NCCCCCCCCCCNC(=O)COCC(=O)N[C@H]3CC[C@@]4(O)C5Cc6ccc(O)c7c6[C@@]4(CCN5C)[C@H]3O7)CC2)cc1Cl [Compound 3e, N-(3-(4-(4-carbamoylbenzyl)piperidin-1-yl)propyl)-N-(3-chloro-4-methylphenyl)-1-(22-(((4aS,7S,7aR,12bS)-4a,9-dihydroxy-3-methyl-2,3,4,4a,5,6,7,7a-octahydro-1H-4,12-methanobenzofuro[3,2-e]isoquinolin-7-yl)amino)-5,18,22-trioxo-3,20-dioxa-6,17-diazadocosan-1-oyl)piperidine-4-carboxamide]",MPE after minocycline,"LPS-pretreated mice [1]; 60 min after minocycline 45 mg/kg i.p., LPS pretreated",100%
same,MPE after minocycline,"LPS-pretreated mice [1]; 120 min after minocycline 45 mg/kg i.p., LPS pretreated",52.04%±17.04
same,MPE after minocycline,"LPS-pretreated mice [1]; 240 min after minocycline 45 mg/kg i.p., LPS pretreated",10.7%±5.17
same,% MPE,"LPS-pretreated mice [1]; LPS 24 hours, minocycline 4 hours, 1000 pmol/mouse MCC22",49.35±14.38 % MPE
same,FIG. 4 LPS/minocycline/MCC22 (value with interval),"LPS-pretreated mice [1]; LPS pretreated, minocycline 45 mg/kg i.p. prior to testing",1016 (54-1558)
same,ED50 (95% CI) i.p.,[2]; i.p.,3.07 pmol/mouse
same,peak time,[2]; i.p.,30 min
same,tolerance,[2]; i.p.,did not exhibit tolerance
same,ED50 (95% CI) i.t.,[2]; i.t.,0.0004 pmol/mouse
same,change of potency with time,[2]; i.t.,increased in potency over 115 days
same,peak time,[2]; i.t.,20 min
same,tolerance,[2]; i.t.,no tolerance
same,LPS pretreated i.c.v./i.t. ratio,LPS-pretreated mice [3],"~34,000^d"
same,LPS pretreated ED50 (CI) i.t.,LPS-pretreated mice [3]; i.t.,0.0149 pmol/mouse
same,LPS pretreated ED50 (CI) i.t.,"LPS-pretreated mice [3]; i.t., listed as MCC22",0.0146 pmol/mouse
same,LPS pretreated i.c.v./i.t. ratio,LPS-pretreated mice [3]; listed as MCC22,"34,000 and 34,223"
same,FIG. 4 LPS/MCC22 (value with interval),LPS-pretreated mice [3]; LPS pretreated mice,0.015 (0.01-0.03)
same,percent maximal possible effect at highest dose measured,"LPS-pretreated mice [3]; LPS pretreated, i.c.v., 500 pmol/mouse",41.1 ± 12.9%
same,potency in TLR4 KO mice,LPS-pretreated mice [3]; LPS-pretreated TLR4 KO mice,not reduced
same,effect of MK801 on antinociception,"LPS-pretreated mice [3]; LPS-pretreated mice treated i.t. with NMDA receptor antagonist MK801, then MCC22",virtually no effect
same,"i.t. potency ratio, morphine/MCC22","LPS-pretreated mice [3]; LPS-pretreated mice, i.t.",2400
same,ED50,"LPS-pretreated mice [3]; Mus musculus, ip, read-out: ED50 i.p.",5.6 µmol/kg
same,ED50 values (95% CI) LPS (thermal),"LPS-pretreated mice [3]; i.t., LPS thermal hyperalgesia model",0.015 pmol/mouse
same,potency increase over 19-atom spacer homologue 3c,"LPS-pretreated mice [3]; i.t., LPS-pretreated mice",> 700 fold
same,tolerance upon repeated administration,"LPS-pretreated mice [3]; i.t., LPS-pretreated mice",without signs of tolerance
same,potency increase over 19-atom spacer homologue 3c,"LPS-pretreated mice [3]; i.t., LPS-pretreated mice, listed as MCC22",at least 700 fold
same,LPS-treated/control potency ratio,"LPS-pretreated mice [3]; i.t., listed as MCC22",3070 and 3131
same,ED50 potency ratio (β-FNA-treated/control),LPS-pretreated mice [3]; inflamed mice pretreated with β-FNA,96.6
same,Relative Potency relative to a mixture of monovalent mu agonist (4) and CCR5 antagonist (2),"LPS-pretreated mice [3]; mouse, in vivo",~3500
same,potency relative to morphine or monovalent control ligand 4,"LPS-pretreated mice [3]; mouse, in vivo",~1500 fold
same,Relative Potency relative to a mixture of monovalent mu agonist (4) and CCR5 antagonist (2),"LPS-pretreated mice [3]; mouse, in vivo, listed as MCC22",3500
same,time to reduced hyperalgesia (decrease in paw withdrawal frequency),HbSS and HbAS mice,≤ 30 min
same,responses of WDR neuron evoked by 1.0 g (9.3 mN) von Frey filament,WDR neuron,significantly reduced responses
